The text below walks through data of paper doi:10.1101/572578v1 (biorxiv, 2019).

What all share (experiment): intrinsic fluorescence quenching titration
Holding throughout (type): binding

Assay [1] deals with COMMD1 (Homo sapiens, UniProt Q8N668, T174M).
The target in assay [2] is COMMD1 (Homo sapiens, UniProt Q8N668, K167E/K173E).
The target in assay [3] is COMMD1 (Homo sapiens, UniProt Q8N668).
COMMD1 (Homo sapiens, UniProt Q8N668), sequence (Q8N668 whole entry): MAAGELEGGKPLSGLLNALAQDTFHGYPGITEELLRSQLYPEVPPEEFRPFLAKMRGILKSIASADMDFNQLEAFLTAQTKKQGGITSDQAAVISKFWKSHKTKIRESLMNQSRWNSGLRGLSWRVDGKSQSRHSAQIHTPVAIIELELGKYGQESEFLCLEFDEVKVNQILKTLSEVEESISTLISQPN

COMMD1 (Homo sapiens, UniProt Q8N668, T174M), sequence (Q8N668 whole entry T174M): as the sequence (Q8N668 whole entry) above, with T174M counted along it
COMMD1 (Homo sapiens, UniProt Q8N668, K167E/K173E), sequence (Q8N668 whole entry K167E/K173E): as the sequence (Q8N668 whole entry) above, with K167E, K173E counted along it

In the case of `CCCCCC(=O)OC[C@H](COP(=O)(O)O[C@@H]1[C@H](O)[C@H](O)[C@@H](OP(=O)(O)O)[C@H](OP(=O)(O)O)[C@H]1O)OC(=O)CCCCC` [PtdIns(4,5)P2], the Kd (as a rule, the equilibrium constant for the complex coming apart) in assay [1] was determined as 62.5 nM; in assay [2], 284 nM; in assay [3], 40.4 nM.
